# Measured values published in US8450266B2 (Ipsen Pharma S.A.S., priority 2008, dated 2013).
# Where a SMILES comes first, the peptide text is derived from it. [ ]: non-standard residue; d: D form. The star is where a group is joined. X2 = CCCCCCN1C(=O)CC(*)C1=O; Decanoyl = CCCCCCCCCC(=O)*; Ac6c = NC1(C(=O)O)CCCCC1; Orn = NCCC[C@H](N)C(=O)O
# How the values were obtained:
# [1] = Rat plasma half-life assay (LC-MS); type: in vitro ADME; settings: incubated at 37° C., read-out: Rat Plasma T½ (converted)
# Procedure, shortened: (§1)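 Aliquots taken from human or rat plasma at time points up to 72 h, quenched with formic acid and acetonitrile, centrifuged. Supernatant analyzed by LC-MS (ESI, positive ion, full scan) on a C8 column with a water/acetonitrile 1% formic acid gradient.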
# [2] = Human plasma half-life assay (LC-MS); type: in vitro ADME; settings: incubated at 37° C., read-out: Human Plasma T½ (converted)
# Procedure, shortened: as §1
Structure (SMILES),half-life at 0.1 mg/ml [1] [h],half-life at 0.1 mg/ml [2] [h],half-life at 0.1 mg/mL [1] [h],half-life at 0.1 mg/mL [2] [h]
"CCCCCCCCCC(=O)NCCC[C@H](NC(=O)[C@H](CCCCN)NC(=O)[C@H](CCCCN)NC(=O)CNC(=O)[C@H](CCCCN)NC(=O)[C@H](CCC(N)=O)NC(=O)[C@H](C)NC(=O)[C@H](CC(C)C)NC(=O)[C@H](CC(C)C)NC(=O)[C@H](Cc1c[nH]c2ccccc12)NC(=O)[C@H](CC(N)=O)NC(=O)[C@@H](NC(=O)[C@H](Cc1ccccc1)NC(=O)[C@H](CC(=O)O)NC(=O)[C@H](CCC(N)=O)NC(=O)[C@H](CCC(N)=O)NC(=O)[C@H](Cc1c[nH]cn1)NC(=O)[C@@H](NC(=O)[C@H](CCCCN)NC(=O)[C@H](CC(=O)O)NC(=O)[C@H](CCSC)NC(=O)[C@H](C)NC(=O)[C@@H](NC(=O)[C@H](CO)NC(=O)[C@H](Cc1ccc(O)cc1)NC(=O)[C@H](CC(=O)O)NC(=O)[C@H](CO)NC(=O)C1(NC(C)=O)CCCCC1)[C@@H](C)CC)[C@@H](C)CC)C(C)C)C(=O)N[C@@H](CC(=O)O)C(=O)N[C@@H](Cc1c[nH]c2ccccc12)C(=O)N[C@@H](CCCCN)C(=O)N[C@@H](Cc1c[nH]cn1)C(=O)N[C@@H](CC(N)=O)C(=O)N[C@H](C(=O)N[C@H](C(=O)N[C@@H](CCC(N)=O)C(=O)O)[C@@H](C)O)[C@@H](C)CC [Example 19, [Ac-A6c^7, Orn^34(N-C(O)-(CH2)8-CH3)]hGIP(7-42)-OH] (Ac-[Ac6c]SDYSIAMDKIHQQDFVNWLLAQKGKK[Orn](Decanoyl)DWKHNITQ-OH)",10.7,18.9,–,–
"CCCCCCCCCC(=O)NCCC[C@H](NC(=O)[C@H](CCCCN)NC(=O)[C@H](CCCCN)NC(=O)CNC(=O)[C@H](CCCCN)NC(=O)[C@H](CCC(N)=O)NC(=O)[C@H](C)NC(=O)[C@H](CC(C)C)NC(=O)[C@H](CC(C)C)NC(=O)[C@H](Cc1c[nH]c2ccccc12)NC(=O)[C@H](CC(N)=O)NC(=O)[C@@H](NC(=O)[C@H](Cc1ccccc1)NC(=O)[C@H](CC(=O)O)NC(=O)[C@H](CCC(N)=O)NC(=O)[C@H](CCC(N)=O)NC(=O)[C@H](Cc1c[nH]cn1)NC(=O)[C@@H](NC(=O)[C@H](CCCCN)NC(=O)[C@H](CC(=O)O)NC(=O)[C@H](CCSC)NC(=O)[C@H](C)NC(=O)[C@@H](NC(=O)[C@H](CO)NC(=O)[C@H](Cc1ccc(O)cc1)NC(=O)[C@H](CC(=O)O)NC(=O)[C@H](CO)NC(=O)C1(N)CCCCC1)[C@@H](C)CC)[C@@H](C)CC)C(C)C)C(=O)N[C@@H](CC(=O)O)C(=O)N[C@@H](Cc1c[nH]c2ccccc12)C(=O)N[C@@H](CCCCN)C(=O)N[C@@H](Cc1c[nH]cn1)C(=O)N[C@@H](CC(N)=O)C(=O)N[C@H](C(=O)N[C@H](C(=O)N[C@@H](CCC(N)=O)C(=O)O)[C@@H](C)O)[C@@H](C)CC [Example 20, [A6c^7, Orn^34(N-C(O)-(CH2)8-CH3)]hGIP(7-42)-OH] (H-[Ac6c]SDYSIAMDKIHQQDFVNWLLAQKGKK[Orn](Decanoyl)DWKHNITQ-OH)",–,–,13.9,9.4
"CCCCCCN1C(=O)CC(SC[C@H](NC(=O)[C@H](CCCCN)NC(=O)[C@H](CCC(N)=O)NC(=O)[C@H](C)NC(=O)[C@H](CC(C)C)NC(=O)[C@H](CC(C)C)NC(=O)[C@H](Cc2c[nH]c3ccccc23)NC(=O)[C@H](CC(N)=O)NC(=O)[C@@H](NC(=O)[C@H](Cc2ccccc2)NC(=O)[C@H](CC(=O)O)NC(=O)[C@H](CCC(N)=O)NC(=O)[C@H](CCC(N)=O)NC(=O)[C@H](Cc2c[nH]cn2)NC(=O)[C@@H](NC(=O)[C@H](CCCCN)NC(=O)[C@H](CC(=O)O)NC(=O)[C@H](CCSC)NC(=O)[C@H](C)NC(=O)[C@@H](NC(=O)[C@H](CO)NC(=O)[C@H](Cc2ccc(O)cc2)NC(=O)[C@H](CC(=O)O)NC(=O)[C@H](CO)NC(=O)C2(NC(C)=O)CCCCC2)[C@@H](C)CC)[C@@H](C)CC)C(C)C)C(=O)N[C@@H](CCCCN)C(=O)N[C@@H](CCCCN)C(=O)N[C@@H](CC(N)=O)C(=O)N[C@@H](CC(=O)O)C(=O)N[C@@H](Cc2c[nH]c3ccccc23)C(=O)N[C@@H](CCCCN)C(=O)N[C@@H](Cc2c[nH]cn2)C(=O)N[C@@H](CC(N)=O)C(=O)N[C@H](C(=O)N[C@H](C(=O)N[C@@H](CCC(N)=O)C(=O)O)[C@@H](C)O)[C@@H](C)CC)C1=O (stereo partly drawn) [Example 22, [Ac-A6c^7, Cys(Hsu)^31]hGIP(7-42)-OH] (Ac-[Ac6c]SDYSIAMDKIHQQDFVNWLLAQKC(X2)KKNDWKHNITQ-OH)",5,7.7,–,–
